One series can be described thus: in vitro. Format: cell-based, human. To be noted: human, differentiated hl-60 cells, 300 μmol/L, about 24 hours, PMA-differentiated HL-60 cells, LDH; no-treatment 0%, cell lysis buffer 100%; read-out: cytotoxicity (%) Evaluation compound results. The procedure, abridged: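 HL-60 cells differentiated ~72 h with 10 nM PMA, then exposed ~24 h to compound at 300 μmol/L final in RPMI with 2% FBS. LDH release in supernatant gave cytotoxicity % scaled between untreated (0%) and lysis-buffer (100%) groups; triplicate.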

Series [1] can be described thus: Study for confirmation of conversion to brexpiprazole in a buffer (stability of the evaluation compounds). Format: physicochemical. The conditions noted are these: in buffer, average of duplicate; for Concentration of brexpiprazole formed: 60-minute reaction sample; for Concentration of evaluation compound decreased: decrease in 60-minute vs 0-minute reaction sample. The method in brief: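 Compounds (final 1 μmol/L, from 100 μmol/L working solutions) incubated in buffer at 37° C. for 0 or 60 min, in duplicate, after 3 min pre-incubation of the reaction solution. Reactions stopped with acetonitrile/isopropanol (4:1) containing internal standards; compound and formed brexpiprazole quantified against 0.01–1 μmol/L calibration samples.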

Here are results for 18 molecules from patent US20260285888A1, “HETEROCYCLIC COMPOUND AND USE THEREOF” (OTSUKA PHARMACEUTICAL CO., LTD., priority 2023, published 2026).

SMILES strings stand for the structures.

Regarding `CCOC(=O)[C@H](C)OP(=O)([O-])OC[N+]1(CCCCOc2ccc3ccc(=O)[nH]c3c2)CCN(c2cccc3sccc23)CC1` [EX 104, (S)-(4-(benzo[b]thiophen-4-yl)-1-(4-((2-oxo-1,2-dihydroquinolin-7-yl)oxy)butyl)piperazin-1-ium-1-yl)methyl (1-ethoxy-1-oxopropan-2-yl) phosphate], in “in vitro”, the cytotoxicity at 24 h, 300 µM is -5%. Besides, in series [1], the “Concentration of brexpiprazole formed” value is 0 nM and the “Concentration of evaluation compound decreased” value turned out to be 200 nM.

In the case of `CC(C)OC(=O)[C@@H](C)OP(=O)([O-])OC[N+]1(CCCCOc2ccc3ccc(=O)[nH]c3c2)CCN(c2cccc3sccc23)CC1` [EX 105, (R)-(4-(benzo[b]thiophen-4-yl)-1-(4-((2-oxo-1,2-dihydroquinolin-7-yl)oxy)butyl)piperazin-1-ium-1-yl)methyl (1-isopropoxy-1-oxopropan-2-yl) phosphate], in the series “in vitro”, the cytotoxicity at 24 h, 300 µM was -6%. In addition, in series [1], the “Concentration of brexpiprazole formed” value came out at 0 nM and the “Concentration of evaluation compound decreased” value came to 50 nM.

For the molecule `C[C@@H](OP(=O)([O-])OC[N+]1(CCCCOc2ccc3ccc(=O)[nH]c3c2)CCN(c2cccc3sccc23)CC1)C(=O)OC(C)(C)C` [EX 106, (R)-(4-(benzo[b]thiophen-4-yl)-1-(4-((2-oxo-1.2-dihydroquinolin-7-yl)oxy)butyl)piperazin-1-ium-1-yl)methyl (1-(tert-butoxy)-1-oxopropan-2-yl) phosphate], the cytotoxicity at 24 h, 300 µM in the series “in vitro” was 10%. Besides, in series [1], the “Concentration of brexpiprazole formed” value was 0 nM and the “Concentration of evaluation compound decreased” value came to 70 nM.

As to `CC(C)COC(=O)[C@@H](C)OP(=O)([O-])OC[N+]1(CCCCOc2ccc3ccc(=O)[nH]c3c2)CCN(c2cccc3sccc23)CC1` [EX 107, (R)-(4-(benzo[b]thiophen-4-yl)-1-(4-((2-oxo-1,2-dihydroquinolin-7-yl)oxy)butyl)piperazin-1-ium-1-yl)methyl (1-isobutoxy-1-oxopropan-2-yl) phosphate], the cytotoxicity at 24 h, 300 µM in the series “in vitro” is -6%. In series [1], the “Concentration of brexpiprazole formed” value worked out at 0 nM and the “Concentration of evaluation compound decreased” value is 70 nM.

Regarding `CCC(CC)COC(=O)[C@@H](C)OP(=O)([O-])OC[N+]1(CCCCOc2ccc3ccc(=O)[nH]c3c2)CCN(c2cccc3sccc23)CC1` [EX 108, (R)-(4-(benzo[b]thiophen-4-yl)-1-(4-((2-oxo-1,2-dihydroquinolin-7-yl)oxy)butyl)piperazin-1-ium-1-yl)methyl (1-(2-ethylbutoxy)-1-oxopropan-2-yl) phosphate], the cytotoxicity at 24 h, 300 µM in the series “in vitro” was -7%. In addition, in series [1], the “Concentration of brexpiprazole formed” value stood at 0 nM and the “Concentration of evaluation compound decreased” value was determined as 80 nM.

`CCOC(=O)C(CC)OP(=O)([O-])OC[N+]1(CCCCOc2ccc3ccc(=O)[nH]c3c2)CCN(c2cccc3sccc23)CC1` (stereo not drawn) [EX 110, (4-(benzo[b]thiophen-4-yl)-1-(4-((2-oxo-1,2-dihydroquinolin-7-yl)oxy)butyl)piperazin-1-ium-1-yl)methyl (1-ethoxy-1-oxobutan-2-yl) phosphate]: in the series “in vitro”, the cytotoxicity at 24 h, 300 µM is -3%. Also, in series [1], the “Concentration of brexpiprazole formed” value turned out to be 0 nM and the “Concentration of evaluation compound decreased” value stood at 70 nM.

In the case of `CCOC(=O)C[C@@H](OP(=O)([O-])OC[N+]1(CCCCOc2ccc3ccc(=O)[nH]c3c2)CCN(c2cccc3sccc23)CC1)C(=O)OCC` [EX 111, (R)-(4-(benzo[b]thiophen-4-yl)-1-(4-((2-oxo-1,2-dihydroquinolin-7-yl)oxy)butyl)piperazin-1-ium-1-yl)methyl (1,4-diethoxy-1,4-dioxobutan-2-yl) phosphate], the cytotoxicity at 24 h, 300 µM in “in vitro” came to 0%. Also, in series [1], the “Concentration of brexpiprazole formed” value amounted to 0 nM and the “Concentration of evaluation compound decreased” value worked out at 20 nM.

Take `O=c1ccc2ccc(OCCCC[N+]3(COP(=O)([O-])OCCCCCCl)CCN(c4cccc5sccc45)CC3)cc2[nH]1` [EX 113, (4-(benzo[b]thiophen-4-yl)-1-(4-((2-oxo-1,2-dihydroquinolin-7-yl)oxy)butyl)piperazin-1-ium-1-yl)methyl (5-chloropentyl) phosphate]: the cytotoxicity at 24 h, 300 µM in “in vitro” amounted to 10%. Further, in series [1], the “Concentration of brexpiprazole formed” value stood at 0 nM and the “Concentration of evaluation compound decreased” value was 160 nM.

`C[C@@H]1CN(CCOP(=O)([O-])OC[N+]2(CCCCOc3ccc4ccc(=O)[nH]c4c3)CCN(c3cccc4sccc34)CC2)C[C@H](C)O1` [EX 116, (4-(benzo[b]thiophen-4-yl)-1-(4-((2-oxo-1,2-dihydroquinolin-7-yl)oxy)butyl)piperazin-1-ium-1-yl)methyl (2-((2S,6R)-2,6-dimethylmorpholino)ethyl) phosphate]: the cytotoxicity at 24 h, 300 µM in the series “in vitro” was -9%. Moreover, in series [1], the “Concentration of brexpiprazole formed” value stood at 0 nM and the “Concentration of evaluation compound decreased” value amounted to 90 nM.

As for `CN1CCN(CCOP(=O)([O-])OC[N+]2(CCCCOc3ccc4ccc(=O)[nH]c4c3)CCN(c3cccc4sccc34)CC2)CC1` [EX 117, (4-(benzo[b]thiophen-4-yl)-1-(4-((2-oxo-1,2-dihydroquinolin-7-yl)oxy)butyl)piperazin-1-ium-1-yl)methyl (2-(4-methylpiperazin-1-yl)ethyl) phosphate], the cytotoxicity at 24 h, 300 µM in the series “in vitro” is -7%. In addition, in series [1], the “Concentration of brexpiprazole formed” value stood at 0 nM and the “Concentration of evaluation compound decreased” value was 50 nM.

`O=c1ccc2ccc(OCCCC[N+]3(COP(=O)([O-])OCCN4CCCCC4)CCN(c4cccc5sccc45)CC3)cc2[nH]1` [EX 118, (4-(benzo[b]thiophen-4-yl)-1-(4-((2-oxo-1,2-dihydroquinolin-7-yl)oxy)butyl)piperazin-1-ium-1-yl)methyl (2-(piperidin-1-yl)ethyl) phosphate]: the cytotoxicity at 24 h, 300 µM in the series “in vitro” is -8%. Further, in series [1], the “Concentration of brexpiprazole formed” value was determined as 0 nM and the “Concentration of evaluation compound decreased” value worked out at 60 nM.

Regarding `O=c1ccc2ccc(OCCCC[N+]3(COP(=O)([O-])OCCN4CCC(F)(F)CC4)CCN(c4cccc5sccc45)CC3)cc2[nH]1` [EX 119, (4-(benzo[b]thiophen-4-yl)-1-(4-((2-oxo-1,2-dihydroquinolin-7-yl)oxy)butyl)piperazin-1-ium-1-yl)methyl (2-(4,4-difluoropiperidin-1-yl)ethyl) phosphate], the cytotoxicity at 24 h, 300 µM in the series “in vitro” is 2%. In series [1], the “Concentration of brexpiprazole formed” value turned out to be 0 nM and the “Concentration of evaluation compound decreased” value stood at 140 nM.

Turning to `CCC(=O)OCOP(=O)([O-])OC[N+]1(CCCCOc2ccc3ccc(=O)[nH]c3c2)CCN(c2cccc3sccc23)CC1` [EX 120, (4-(benzo[b]thiophen-4-yl)-1-(4-((2-oxo-1,2-dihydroquinolin-7-yl)oxy)butyl)piperazin-1-ium-1-yl)methyl ((propionyloxy)methyl) phosphate], the cytotoxicity at 24 h, 300 µM in the series “in vitro” worked out at 13%. In series [1], the “Concentration of brexpiprazole formed” value is 0 nM and the “Concentration of evaluation compound decreased” value amounted to 50 nM.

As to `CCCC(C)(C)C(=O)OCOP(=O)([O-])OC[N+]1(CCCCOc2ccc3ccc(=O)[nH]c3c2)CCN(c2cccc3sccc23)CC1` [EX 123, (4-(benzo[b]thiophen-4-yl)-1-(4-((2-oxo-1.2-dihydroquinolin-7-yl)oxy)butyl)piperazin-1-ium-1-yl)methyl (((2,2-dimethylpentanoyl)oxy)methyl) phosphate], the cytotoxicity at 24 h, 300 µM in “in vitro” is -8%. For the same molecule, in series [1], the “Concentration of brexpiprazole formed” value is 0 nM and the “Concentration of evaluation compound decreased” value was -110 nM.

Consider `O=C(CCO)OCOP(=O)([O-])OC[N+]1(CCCCOc2ccc3ccc(=O)[nH]c3c2)CCN(c2cccc3sccc23)CC1` [EX 125, (4-(benzo[b]thiophen-4-yl)-1-(4-((2-oxo-1,2-dihydroquinolin-7-yl)oxy)butyl)piperazin-1-ium-1-yl)methyl (((3-hydroxypropanoyl)oxy)methyl) phosphate], for which the cytotoxicity at 24 h, 300 µM in “in vitro” is -7%. Also, in series [1], the “Concentration of brexpiprazole formed” value was 0 nM and the “Concentration of evaluation compound decreased” value is 130 nM.

As for `O=C(CCCCCO)OCOP(=O)([O-])OC[N+]1(CCCCOc2ccc3ccc(=O)[nH]c3c2)CCN(c2cccc3sccc23)CC1` [EX 126, (4-(benzo[b]thiophen-4-yl)-1-(4-((2-oxo-1,2-dihydroquinolin-7-yl)oxy)butyl)piperazin-1-ium-1-yl)methyl (6-hydroxyhexanoyl)oxy)methyl) phosphate], in “in vitro”, the cytotoxicity at 24 h, 300 µM is -7%. In addition, in series [1], the “Concentration of brexpiprazole formed” value came to 0 nM and the “Concentration of evaluation compound decreased” value came out at 160 nM.

`O=C(OCOP(=O)([O-])OC[N+]1(CCCCOc2ccc3ccc(=O)[nH]c3c2)CCN(c2cccc3sccc23)CC1)C1CCOCC1` [EX 127, (4-(benzo[b]thiophen-4-yl)-1-(4-((2-oxo-1,2-dihydroquinolin-7-yl)oxy)butyl)piperazin-1-ium-1-yl)methyl (((tetrahydro-2H-pyran-4-carbonyl)oxy)methyl) phosphate]: the cytotoxicity at 24 h, 300 µM in the series “in vitro” was 0%. Besides, in series [1], the “Concentration of brexpiprazole formed” value turned out to be 0 nM and the “Concentration of evaluation compound decreased” value is 40 nM.

With `CC(C)(C)OC(=O)NC(C)(C)C(=O)OCOP(=O)([O-])OC[N+]1(CCCCOc2ccc3ccc(=O)[nH]c3c2)CCN(c2cccc3sccc23)CC1` [EX 128, (4-(benzo[b]thiophen-4-yl)-1-(4-((2-oxo-1,2-dihydroquinolin-7-yl)oxy)butyl)piperazin-1-ium-1-yl)methyl (((2-(tert-butoxycarbonyl)amino)-2-methylpropanoyl)oxy)methyl) phosphate], in the series “in vitro”, the cytotoxicity at 24 h, 300 µM stood at 2%. In addition, in series [1], the “Concentration of brexpiprazole formed” value was 0 nM and the “Concentration of evaluation compound decreased” value was -30 nM.
